Our source for the IC50 values is patent US9422293B2 (priority 2006, dated 2016).

Each structure is given as a SMILES string. Counter-ions that a name gives are not always drawn.

This assay deals with rat TRPV1 (Rattus norvegicus (Rat), UniProt O35433). Conditions: read-out: Rat IC50.
Chain of rat TRPV1 (O35433 whole entry): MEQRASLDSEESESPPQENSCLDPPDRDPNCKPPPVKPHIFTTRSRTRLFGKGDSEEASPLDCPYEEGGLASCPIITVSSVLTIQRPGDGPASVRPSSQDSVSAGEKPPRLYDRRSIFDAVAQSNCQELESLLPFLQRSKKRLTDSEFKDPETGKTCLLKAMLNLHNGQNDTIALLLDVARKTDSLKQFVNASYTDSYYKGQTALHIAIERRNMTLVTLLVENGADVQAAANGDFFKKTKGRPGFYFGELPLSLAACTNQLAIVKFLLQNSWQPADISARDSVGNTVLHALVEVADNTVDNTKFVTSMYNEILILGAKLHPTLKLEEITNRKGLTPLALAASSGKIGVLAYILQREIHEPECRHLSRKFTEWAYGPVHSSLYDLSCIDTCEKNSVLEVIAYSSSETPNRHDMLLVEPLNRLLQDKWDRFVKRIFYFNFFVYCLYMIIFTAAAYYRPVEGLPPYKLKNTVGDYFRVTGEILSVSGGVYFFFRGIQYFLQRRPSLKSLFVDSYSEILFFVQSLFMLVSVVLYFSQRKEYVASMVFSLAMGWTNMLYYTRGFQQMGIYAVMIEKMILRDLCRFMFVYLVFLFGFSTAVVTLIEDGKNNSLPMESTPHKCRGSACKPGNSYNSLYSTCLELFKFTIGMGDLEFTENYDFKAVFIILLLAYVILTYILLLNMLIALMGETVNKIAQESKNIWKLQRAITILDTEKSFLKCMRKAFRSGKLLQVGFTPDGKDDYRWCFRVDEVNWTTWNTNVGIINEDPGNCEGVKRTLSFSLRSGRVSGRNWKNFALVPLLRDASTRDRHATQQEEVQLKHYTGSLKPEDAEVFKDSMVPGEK
One may read the IC50 as the point on the concentration scale where inhibition reaches its midpoint. Turning to `Cc1ccccc1Nc1nc2c(c(Nc3ccc(C(F)(F)F)cc3)n1)CCN(c1ncccc1C(F)(F)F)CC2` [Example 278, N^2-(2-Methylphenyl)-N^4-[4-(trifluoromethyl)phenyl]-7-[3-(trifluoromethyl)pyridin-2-yl]-6,7,8,9-tetrahydro-5H-pyrimido[4,5-d]azepine-2,4-diamine trifluoroacetic acid salt], the IC50 is 670 nM. Under `Cc1cccc(Nc2nc3c(c(Nc4ccc(C(F)(F)F)cc4)n2)CCN(c2ncccc2C(F)(F)F)CC3)c1` [Example 279, N^2-(3-Methylphenyl)-N^4-[4-(trifluoromethyl)phenyl]-7-[3-(trifluoromethyl)pyridin-2-yl]-6,7,8,9-tetrahydro-5H-pyrimido[4,5-d]azepine-2,4-diamine trifluoroacetic acid salt] stands > 6670 nM; under `CC(C)c1nc2c(c(Nc3ccc(C(F)(F)F)cc3)n1)CCN(c1ncccc1NS(C)(=O)=O)CC2` [Example 281, N-{2-[2-(1-Methylethyl)-4-{[4-(trifluoromethyl)phenyl]amino}-5,6,8,9-tetrahydro-7H-pyrimido[4,5-d]azepin-7-yl]pyridin-3-yl}methanesulfonamide], 2620 nM; under `CC(C)c1nc2c(c(Nc3ccc(C(F)(F)F)nc3)n1)CCN(c1ncccc1S(C)(=O)=O)CC2` [Example 282, 2-(1-Methylethyl)-7-[3-(methylsulfonyl)pyridin-2-yl]-N-[6-(trifluoromethyl)pyridin-3-yl]-6,7,8,9-tetrahydro-5H-pyrimido[4,5-d]azepin-4-amine], 130 nM. For `CS(=O)(=O)c1cccnc1N1CCc2ncnc(Nc3ccc(C(F)(F)F)cc3)c2CC1` [Example 283, 7-[3-(Methylsulfonyl)pyridin-2-yl]-N-[4-(trifluoromethyl)phenyl]-6,7,8,9-tetrahydro-5H-pyrimido[4,5-d]azepin-4-amine] the value was 8520 nM; for `CC(C)c1nc2c(c(Nc3ccc(C(C)(C)C)cc3)n1)CCN(c1ncccc1N)CC2` [Example 284, 7-(3-Aminopyridin-2-yl)-N-[4-(1,1-dimethylethyl)phenyl]-2-(1-methylethyl)-6,7,8,9-tetrahydro-5H-pyrimido[4,5-d]azepin-4-amine], 550 nM. For `CC(C)c1nc2c(c(Nc3ccc(C(F)(F)F)cc3)n1)CCN(c1ncc(C(=O)O)cc1Cl)CC2` [Example 288, 5-Chloro-6-[2-(1-methylethyl)-4-{[4-(trifluoromethyl)phenyl]amino}-5,6,8,9-tetrahydro-7H-pyrimido[4,5-d]azepin-7-yl]pyridine-3-carboxylic acid trifluoroacetic acid salt] the value was 2020 nM. As for `CC(C)c1nc2c(c(Nc3ccc(C(C)(C)C)cc3)n1)CCN(c1ncc([N+](=O)[O-])cc1C(F)(F)F)CC2` [Example 290, N-[4-(1,1-Dimethylethyl)phenyl]-2-(1-methylethyl)-7-[5-nitro-3-(trifluoromethyl)pyridin-2-yl]-6,7,8,9-tetrahydro-5H-pyrimido[4,5-d]azepin-4-amine], the IC50 was 100 nM. Under `CC(C)c1nc2c(c(Nc3ccc(C(F)(F)F)cc3)n1)CCN(c1ncc([N+](=O)[O-])cc1C(F)(F)F)CC2` [Example 291, 2-(1-Methylethyl)-7-[5-nitro-3-(trifluoromethyl)pyridin-2-yl]-N-[4-(trifluoromethyl)phenyl]-6,7,8,9-tetrahydro-5H-pyrimido[4,5-d]azepin-4-amine] stands 170 nM. For `N#Cc1cccnc1N1CCc2ncnc(Nc3ccc(C(F)(F)F)cc3)c2CC1` [Example 293, 2-(4-{[4-(Trifluoromethyl)phenyl]amino}-5,6,8,9-tetrahydro-7H-pyrimido[4,5-d]azepin-7-yl)pyridine-3-carbonitrile] the value was 3490 nM; for `NC(=O)c1cccnc1N1CCc2ncnc(Nc3ccc(C(F)(F)F)cc3)c2CC1` [Example 294, 2-(4-{[4-(Trifluoromethyl)phenyl]amino}-5,6,8,9-tetrahydro-7H-pyrimido[4,5-d]azepin-7-yl)pyridine-3-carboxamide trifluoroacetic acid salt], 2940 nM; for `Fc1cccnc1N1CCc2ncnc(Nc3ccc(C(F)(F)F)cc3)c2CC1` [Example 295, 7-(3-Fluoropyridin-2-yl)-N-[4-(trifluoromethyl)phenyl]-6,7,8,9-tetrahydro-5H-pyrimido[4,5-d]azepin-4-amine], 10400 nM. `CCS(=O)(=O)c1cccnc1N1CCc2nc(C(C)C)nc(Nc3ccc(C(C)(C)C)cc3)c2CC1` [Example 296, N-[4-(1,1-Dimethylethyl)phenyl]-7-[3-(ethylsulfonyl)pyridin-2-yl]-2-(1-methylethyl)-6,7,8,9-tetrahydro-5H-pyrimido[4,5-d]azepin-4-amine]: the IC50 turned out to be 120 nM. Under `CCS(=O)(=O)c1cccnc1N1CCc2nc(N3CCCCC3)nc(Nc3ccc(C(F)(F)F)cc3)c2CC1` [Example 297, 7-[3-(Ethylsulfonyl)pyridin-2-yl]-2-piperidin-1-yl-N-[4-(trifluoromethyl)phenyl]-6,7,8,9-tetrahydro-5H-pyrimido[4,5-d]azepin-4-amine] stands 1080 nM; under `O=S(=O)(NC1CC1)c1cccnc1N1CCc2nc(N3CCCCC3)nc(Nc3ccc(C(F)(F)F)cc3)c2CC1` [Example 299, N-Cyclopropyl-2-(2-piperidin-1-yl-4-{[4-(trifluoromethyl)phenyl]amino}-5,6,8,9-tetrahydro-7H-pyrimido[4,5-d]azepin-7-yl)pyridine-3-sulfonamide], 3000 nM; under `CC(C)NS(=O)(=O)c1cccnc1N1CCc2nc(N3CCCCC3)nc(Nc3ccc(C(F)(F)F)cc3)c2CC1` [Example 300, N-(1-Methylethyl)-2-(2-piperidin-1-yl-4-{[4-(trifluoromethyl)phenyl]amino}-5,6,8,9-tetrahydro-7H-pyrimido[4,5-d]azepin-7-yl)pyridine-3-sulfonamide], 2000 nM. For `CCS(=O)(=O)c1cccnc1N1CCc2ncnc(Nc3ccc(C(F)(F)F)cc3)c2CC1` [Example 301, 7-[3-(Ethylsulfonyl)pyridin-2-yl]-N-[4-(trifluoromethyl)phenyl]-6,7,8,9-tetrahydro-5H-pyrimido[4,5-d]azepin-4-amine] the value was 8970 nM. Under `NS(=O)(=O)c1cccnc1N1CCc2ncnc(Nc3ccc(C(F)(F)F)cc3)c2CC1` [Example 302, 2-(4-{[4-(Trifluoromethyl)phenyl]amino}-5,6,7,8,9-tetrahydro-7H-pyrimido[4,5-d]azepin-7-yl)pyridine-3-sulfonamide] stands 9460 nM; under `COC(=O)c1cnc(N2CCc3nc(SC)nc(Nc4ccc(C(F)(F)F)cc4)c3CC2)c(Cl)c1` [Example 303, Methyl 5-chloro-6-[2-(methylsulfanyl)-4-{[4-(trifluoromethyl)phenyl]amino}-5,6,8,9-tetrahydro-7H-pyrimido[4,5-d]azepin-7-yl]pyridine-3-carboxylate], > 6670 nM. As to `CCS(=O)(=O)c1cccnc1N1CCc2nc(SC)nc(Nc3ccc(C(F)(F)F)cc3)c2CC1` [Example 305, [7-(3-Ethanesulfonyl-pyridin-2-yl)-2-methylsulfanyl-6,7,8,9-tetrahydro-5H-pyrimido[4,5-d]azepin-4-yl]-(4-trifluoromethyl-phenyl)-amine], the IC50 amounted to 1120 nM.
